In patent publication US11530197B2, “Analogs for the treatment of disease” (Insilico Medicine IP Limited, priority 2021, dated 2022):

Assays:
TNIK(h) = TNIK(h) (Homo sapiens (Human), UniProt Q9UKE5); assay: TNIK Human STE Kinase Enzymatic Radiometric Assay; format: biochemical; details: ATP 70 μM; 40 min at room temperature; read-out: TNIK (IC50);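 further: remaining kinase activity relative to DMSO control, compound added without preincubation, reaction started with ATP, IC50 from variable-slope sigmoidal dose-response fit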
Method: (§1) The reaction is initiated by the addition of the Mg/ATP mix. After incubation for 40 minutes at room temperature, the reaction is stopped by the addition of phosphoric acid to a concentration of 0.5%.
INCUBATION: 40 min at Room temperature
COMPOUND DILUTION SCHEME: All compounds supplied were prepared to a working stock of 50× final assay concentration in 100% DMSO. Where appropriate, more concentrated stocks were diluted manually to 50× using 100% DMSO. Compounds supplied as powders were reconstituted to a 10 mM stock in 100% DMSO before further dilution to 50×. ASSAY PROCEDURE: The required volume of the 50× stock of test compound was added to the assay before a reaction mix containing the enzyme and substrate was added. The reaction was initiated by the addition of ATP at the selected concentration. There was no pre-incubation of the compound with the enzyme/substrate mix prior to ATP addition. […] Results are expressed as kinase activity remaining, as a percentage of the DMSO control. This is calculated using the following formula:
(§2) For IC50 determinations, data are analyzed using XLFit version 5.3 (ID Business Solutions). Sigmoidal dose-response (variable slope) curves are fit based on the mean result for each test concentration using non-linear regression analysis. Where the top and/or bottom of the curve fall >10% out with 100 and 0, respectively, either or both of these limits may be constrained at 100 and 0, provided that the QC criterion on R2 is met.

[1] = tested on: Collagen I (COL1A1) in LX-2 cells; assay: Collagen and Alpha-SMA in LX-2 (Western blot after TGF-β stimulation); format: cell-based; details: Homo sapiens, 4 ng/ml TGF-β for 48 hours, Collagen I normalized to GAPDH;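 further: cells serum-starved in 0.4% FBS before treatment, lysates analysed by Western blot, DMSO-only wells as blank and TGF-β alone as maximal induction control, three independent experiments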
Method: 3 ml of 0.25% Trypsin-EDTA solution was then added and cells were incubated at 37° C. for 5 min for each T150-flask. 7 ml of culture medium was added to stop trypsinization. The cells were centrifuged at 300×g for 5 min. Supernatant medium was discarded and cells were re-suspended with fresh culture medium. The cells were counted with Cell viability analyzer. 5.0E+05 cells/well were seeded into 6-well plate containing 2.0 mL of culture medium. The cells were cultured overnight at 37° C. The next day, the complete medium was replaced with medium with 0.4% FBS for starvation. […] In parallel, medium containing only DMSO and TGF-β was used as blank control and positive control, respectively. TGF-β induction was used as maximum induction positive control. The culture medium was discarded at the end of induction. Cells were washed once using ice-cold DPBS. RIPA buffer was added to lyse the cells for 20 min. The cells were then scraped off the culture plate, collected in a tube and centrifuged. The supernatant was stored at −80° C. The total amount of protein in the lysate was determined using BCA Protein Assay kit. The cell treatment of fibrosis assay was performed in three independent experiments for each compound.
All the lysate samples were adjusted to the same protein concentration with RIPA buffer after BCA assay. […] The denatured samples were used for electrophoresis. Western blot was performed according to the standard protocols. The same volume of protein was loaded onto 4-12% Bis-Tris gel. Duplicate lysates of samples were loaded onto two gels. The gels were run for 0.5 h at 80 V and 120 V for another 1 h. When the electrophoresis was completed, the gels containing target protein Collagen I (COL1A1) were transferred onto NC membrane using Trans-Blot Electrophoretic Transfer Cell for 90 min at 100 V. The iBlot™ 2 Gel Transfer Device was used to transfer α-SMA and GAPDH at 20 V for 7 min. All the membranes were blocked in TBST buffer with 5% nonfat dry milk in at RT for 1 h and then incubated with primary antibody anti-COL1A1 and anti-α-SMA in TBST buffer containing 5% BSA at 4° C. overnight. For GAPDH detection, the membrane with α-SMA immunoblots were stripped with Restore™ Western Blot Stripping Buffer after detection. And the membranes were re-blocked and then re-probed with primary antibody anti-GAPDH antibody at room temperature (RT) for 2 h. After incubation with primary antibodies, membranes were washed with TBST, then incubated with the secondary antibody at RT for 1 h. Blots were visualized using the instrument Image Quant LAS-4000. The chemiluminescent signals derived from ECL Western blotting reagents were captured. The bands integrated intensity from 16-bit blot images was used for quantitation with the software (1D component of ImageQuant TL). The quantification raw data of the two duplicated gels was obtained from ImageQuant TL. Collagen I and α-SMA proteins expression level was normalized to GAPDH for each gel. The average normalization data of the two duplicated gels was calculated and applied to calculate IC50 using an equation for a sigmoidal dose response (variable slope) of GraphPad™ Prism software. The equation is Y=Bottom+(Top-Bottom)/(1+10^((Log IC50−X)*Hillslope). Note: X is the logarithm of compound concentration, Y is the average normalization data

MAP4K4 (h) = MAP4K4 (h) (Homo sapiens (Human), UniProt O95819); assay: MAP4K4 Human STE Kinase Enzymatic Radiometric Assay; format: biochemical; details: ATP 200 μM; 40 min at room temperature;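 further: kinase activity remaining relative to the DMSO control, IC50 derived from sigmoidal variable-slope curve fits, no preincubation of compound with enzyme before ATP start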
Method: as §1
INCUBATION: 40 min at Room temperature
COMPOUND DILUTION SCHEME: All compounds supplied were prepared to a working stock of 50× final assay concentration in 100% DMSO. Where appropriate, more concentrated stocks were diluted manually to 50× using 100% DMSO. Compounds supplied as powders were reconstituted to a 10 mM stock in 100% DMSO before further dilution to 50×.
ASSAY PROCEDURE: The required volume of the 50× stock of test compound was added to the assay before a reaction mix containing the enzyme and substrate was added. The reaction was initiated by the addition of ATP at the selected concentration. There was no pre-incubation of the compound with the enzyme/substrate mix prior to ATP addition.
Results are expressed as kinase activity remaining, as a percentage of the DMSO control. This is calculated using the following formula: Mean of Sample Counts−Mean of Blank Counts/Mean of Control Counts
as §2

[2] = Metabolic stability in human liver microsomes; format: in vitro ADME; details: LM Clint; 1 μM test compound, 0.5 mg protein/mL microsome, 37° C., up to 60 min;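 further: NADPH-supplemented human liver microsomes sampled at 0, 5, 10, 20, 30 and 60 min, parent compound quantified by LC-MS/MS, intrinsic clearance from first-order decay, no-cofactor incubation as control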
Method: Test Compound an Control Working Solution Preparation: Working solution: 5 μL of compound and control stock solution (10 mM in dimethyl sulfoxide (DMSO)) were diluted with 495 µL of acetonitrile (ACN) (intermediate solution concentration: 100 μM, 99% ACN).
Preparation Procedure: The appropriate amount of NADPH powder was weighed and diluted into a 10 mM MgCl2 solution (working solution concentration: 10 unit/mL; final concentration in reaction system: 1 unit/mL).
Preparation Procedure: The appropriate concentrations of microsome working solutions were prepared in 100 mM potassium phosphate buffer.
Stop Solution Preparation: Cold (4° C.) acetonitrile (ACN) containing 200 ng/mL tolbutamide and 200 ng/mL labetalol as internal standards (IS) was used as the stop solution.
Dilute liver microsomes to 0.56 mg/mL in 100 mM phosphate buffer.
Transfer 445 μL microsome working solutions (0.56 mg/mL) into pre-warmed ‘Incubation’ plates T60 and NCF60, Then pre-incubate ‘Incubation’ plates T60 and NCF60 for 10 min at 37° C. with constant shaking. Transfer 54 μL liver microsomes to blank plate, then add 6 μL NAPDH cofactor to blank plate, and then add 180 μL quenching solution to blank plate.
2.5.4 Add 5 μL compound working solution (100 μM) into ‘incubation’ plates (T60 and NCF60) containing microsomes and mix 3 times thoroughly.
For the NCF60 plate, add 50 μL of buffer and mix 3 times thoroughly. Start timing; plate will be incubated at 37° C. for 60 min while shaking.
For the T60 plate, mix 3 times thoroughly, and immediately remove 54 μL mixture for the 0-min time point to ‘Quenching’ plate. Then add 44 μL NAPDH cofactor to incubation plate (T60). Start timing; plate will be incubated at 37° C. for 60 min while shaking.
At 5, 10, 20, 30, and 60 min, add 180 μL quenching solution to ‘Quenching’ plates, mix once, and serially transfer 60 μL sample from T60 plate per time point to ‘Quenching’ plates.
For NCF60: mix once, and transfer 60 μL sample from the NCF60 incubation to ‘Quenching’ plate containing quenching solution at the 60-min time point.
All sampling plates are shaken for 10 min, then centrifuged at 4000 rpm for 20 minutes at 4° C.
Transfer 80 μL supernatant into 240 μL HPLC water, and mix by plate shaker for 10 min.
Each bioanalysis plate was sealed and shaken for 10 minutes prior to LC-MS/MS analysis.
The equation of first order kinetics was used to calculate T½ and Intrinsic clearance (CLint mic) in (L/min/mg).

Sequence of MAP4K4 (h) (O95819 whole entry): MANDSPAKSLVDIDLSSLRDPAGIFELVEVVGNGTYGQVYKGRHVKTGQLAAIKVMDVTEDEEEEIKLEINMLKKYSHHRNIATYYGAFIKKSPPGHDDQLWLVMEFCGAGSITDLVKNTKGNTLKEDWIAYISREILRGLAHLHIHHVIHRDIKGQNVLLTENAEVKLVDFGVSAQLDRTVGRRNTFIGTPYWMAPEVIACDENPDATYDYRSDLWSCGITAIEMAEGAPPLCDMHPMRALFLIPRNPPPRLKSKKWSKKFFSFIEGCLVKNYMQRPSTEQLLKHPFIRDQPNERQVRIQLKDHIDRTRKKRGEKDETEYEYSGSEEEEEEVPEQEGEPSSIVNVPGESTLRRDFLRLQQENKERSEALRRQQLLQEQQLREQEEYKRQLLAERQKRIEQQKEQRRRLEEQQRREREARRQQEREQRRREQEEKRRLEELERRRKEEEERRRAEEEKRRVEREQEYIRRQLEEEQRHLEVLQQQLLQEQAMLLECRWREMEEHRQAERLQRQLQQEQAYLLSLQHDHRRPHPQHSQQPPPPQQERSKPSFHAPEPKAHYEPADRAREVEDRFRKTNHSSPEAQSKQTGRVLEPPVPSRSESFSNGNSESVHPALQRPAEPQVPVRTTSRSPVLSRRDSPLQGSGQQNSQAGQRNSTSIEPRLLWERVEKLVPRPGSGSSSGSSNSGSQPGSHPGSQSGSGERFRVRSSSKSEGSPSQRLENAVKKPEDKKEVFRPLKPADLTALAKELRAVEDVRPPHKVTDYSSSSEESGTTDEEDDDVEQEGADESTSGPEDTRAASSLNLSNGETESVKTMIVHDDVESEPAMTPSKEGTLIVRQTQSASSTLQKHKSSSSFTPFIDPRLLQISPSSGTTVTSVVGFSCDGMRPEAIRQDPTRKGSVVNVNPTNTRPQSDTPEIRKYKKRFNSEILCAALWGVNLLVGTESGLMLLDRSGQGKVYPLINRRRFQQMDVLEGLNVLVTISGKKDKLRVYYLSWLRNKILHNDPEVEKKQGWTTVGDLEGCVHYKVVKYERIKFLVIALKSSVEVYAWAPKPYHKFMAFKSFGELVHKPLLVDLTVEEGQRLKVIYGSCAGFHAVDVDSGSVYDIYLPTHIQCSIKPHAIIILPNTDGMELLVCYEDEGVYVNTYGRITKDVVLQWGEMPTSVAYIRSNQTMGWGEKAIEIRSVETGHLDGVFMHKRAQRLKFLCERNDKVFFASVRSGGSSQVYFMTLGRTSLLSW
Sequence of TNIK(h) (Q9UKE5 whole entry): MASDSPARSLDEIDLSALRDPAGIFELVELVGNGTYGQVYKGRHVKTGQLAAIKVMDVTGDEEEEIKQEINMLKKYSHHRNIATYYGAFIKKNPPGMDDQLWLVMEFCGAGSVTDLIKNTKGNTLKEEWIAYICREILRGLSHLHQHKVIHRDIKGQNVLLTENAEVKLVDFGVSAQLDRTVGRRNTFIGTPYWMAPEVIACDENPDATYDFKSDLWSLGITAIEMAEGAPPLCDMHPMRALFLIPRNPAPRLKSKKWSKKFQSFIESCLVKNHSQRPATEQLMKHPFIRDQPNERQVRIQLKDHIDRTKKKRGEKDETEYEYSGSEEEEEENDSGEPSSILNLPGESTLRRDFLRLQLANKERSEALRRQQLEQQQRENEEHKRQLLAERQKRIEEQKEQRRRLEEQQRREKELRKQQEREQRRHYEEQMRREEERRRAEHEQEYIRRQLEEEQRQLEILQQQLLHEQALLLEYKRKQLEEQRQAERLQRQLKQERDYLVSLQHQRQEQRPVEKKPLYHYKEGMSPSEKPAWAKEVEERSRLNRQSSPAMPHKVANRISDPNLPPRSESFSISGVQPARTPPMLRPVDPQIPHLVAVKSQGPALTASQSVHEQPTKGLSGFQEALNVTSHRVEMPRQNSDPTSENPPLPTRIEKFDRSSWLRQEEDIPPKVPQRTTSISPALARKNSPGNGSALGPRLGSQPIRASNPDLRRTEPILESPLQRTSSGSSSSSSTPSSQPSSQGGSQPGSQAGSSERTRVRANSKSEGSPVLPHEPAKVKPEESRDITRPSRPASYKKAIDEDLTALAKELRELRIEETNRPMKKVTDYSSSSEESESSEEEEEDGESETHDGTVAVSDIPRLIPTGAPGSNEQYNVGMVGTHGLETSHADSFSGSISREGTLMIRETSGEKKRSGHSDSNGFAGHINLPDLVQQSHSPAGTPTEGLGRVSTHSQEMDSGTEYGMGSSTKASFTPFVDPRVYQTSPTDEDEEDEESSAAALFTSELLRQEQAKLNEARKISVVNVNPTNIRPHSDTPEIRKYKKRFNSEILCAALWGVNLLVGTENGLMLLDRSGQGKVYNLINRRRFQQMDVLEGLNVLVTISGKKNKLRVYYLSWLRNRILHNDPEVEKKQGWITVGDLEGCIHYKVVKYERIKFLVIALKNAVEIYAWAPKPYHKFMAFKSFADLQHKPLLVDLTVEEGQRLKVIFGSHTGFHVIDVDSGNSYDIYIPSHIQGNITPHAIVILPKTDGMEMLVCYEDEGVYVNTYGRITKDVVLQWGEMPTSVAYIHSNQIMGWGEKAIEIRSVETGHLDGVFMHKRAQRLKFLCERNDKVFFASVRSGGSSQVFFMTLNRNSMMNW

Compound | IC50 (TNIK(h)) | IC50 [1] | IC50 (MAP4K4 (h)) | Human Liver Microsome (μM/min/mg) [2]
CN1CCN(c2ccc(NC(=O)c3c[nH]c(-c4c(-c5ccc(F)cc5)ncn4CC(F)(F)F)n3)cc2)CC1=O [Compound 194, 5′-(4-fluorophenyl)-N-(4-(4-methyl-3-oxopiperazin-1-yl)phenyl)-3′-(2,2,2-trifluoroethyl)-1H,3′H-[2,4′-biimidazole]-4-carboxamide] | 12 to 120 nM | 0.1 to 1 nM | > 120 nM | –
C[N+]1([O-])CCN(c2ccc(NC(=O)c3c[nH]c(-c4c(-c5ccc(F)cc5)ncn4CC(F)(F)F)n3)cc2)CC1 [Compound 166, 4-(4-(5′-(4-fluorophenyl)-3′-(2,2,2-trifluoroethyl)-1H,3′H-[2,4′-biimidazole]-4-carboxamido)phenyl)-1-methylpiperazine 1-oxide] | > 120 nM | – | > 120 nM | +++ (1-10 μM/min/mg as +++)
O=C(Nc1ccc(N2CCN(CCO)CC2)cc1)c1c[nH]c(-c2c(-c3ccc(F)cc3)ncn2[C@H]2CC[C@H](O)CC2)n1 [Compound 158, 5′-(4-fluorophenyl)-3′-((1r,4r)-4-hydroxycyclohexyl)-N-(4-(4-(2-hydroxyethyl)piperazin-1-yl)phenyl)-1H,3′H-[2,4′-biimidazole]-4-carboxamide] | 1 to 12 nM | – | 12 to 120 nM | +++ (1-10 μM/min/mg as +++)
CC1CN(c2ccc(NC(=O)c3c[nH]c(-c4c(-c5ccc(F)cc5)ncn4CC(F)(F)F)n3)cc2)CC(C)N1C (stereo not shown) [Compound 190, 5′-(4-fluorophenyl)-3′-(2,2,2-trifluoroethyl)-N-(4-(3,4,5-trimethylpiperazin-1-yl)phenyl)-1H,3′H-[2,4′-biimidazole]-4-carboxamide] | 1 to 12 nM | < 0.1 nM | 12 to 120 nM | –
O=C(NC1CCOCC1)c1ccc(-c2c(-c3ccc(F)cc3)ncn2C2CCCC2)o1 [Compound 39] | – | > 1 nM | – | –
CN1CCN(c2ccc(NC(=O)c3c[nH]c(-c4c(-c5ccc(F)cc5)ncn4CC(C)(C)C)n3)cc2)CC1 [Compound 135, 5′-(4-fluorophenyl)-N-(4-(4-methylpiperazin-1-yl)phenyl)-3′-neopentyl-1H,3′H-[2,4′-biimidazole]-4-carboxamide] | 12 to 120 nM | – | > 120 nM | + (>100 μM/min/mg as +)
CN1CCN(c2ccc(NC(=O)c3c[nH]c(-c4c(-c5ccc(F)cc5)ncn4C)n3)cc2)CC1 [Compound 119, 5′-(4-fluorophenyl)-3′-methyl-N-(4-(4-methylpiperazin-1-yl)phenyl)-1H,3′H-[2,4′-biimidazole]-4-carboxamide] | > 120 nM | – | > 120 nM | ++ (10-100 μM/min/mg as ++)
CC(C)n1cnc(-c2ccc(C(F)(F)F)cc2)c1-c1nc(C(=O)Nc2ccc(CCC(=O)O)cc2)c[nH]1 [Compound 133, 3-(4-(3′-isopropyl-5′-(4-(trifluoromethyl)phenyl)-1H,3′H-[2,4′-biimidazole]-4-carboxamido)phenyl)propanoic acid] | > 120 nM | – | > 120 nM | +++ (1-10 μM/min/mg as +++)
CC(C)n1cnc(-c2ccc(F)cc2)c1-c1nc(C(=O)Nc2ccc(N3CCN(S(N)(=O)=O)CC3)cc2)c[nH]1 [Compound 97, 5′-(4-fluorophenyl)-3′-isopropyl-N-(4-(4-sulfamoylpiperazin-1-yl)phenyl)-1H,3′H-[2,4′-biimidazole]-4-carboxamide] | 12 to 120 nM | – | 12 to 120 nM | + (>100 μM/min/mg as +)
CC(C)n1cnc(-c2ccc(F)cc2)c1-c1nc(C(=O)Nc2ccc(C(=O)O)cc2)c[nH]1 [Compound 113, 4-(5′-(4-fluorophenyl)-3′-isopropyl-1H,3′H-[2,4′-biimidazole]-4-carboxamido)benzoic acid] | 1 to 12 nM | – | > 120 nM | +++ (1-10 μM/min/mg as +++)
CC(C)n1cnc(-c2ccc(F)cc2)c1-c1nc(C(=O)Nc2ccc(N3CCNCC3)cc2)c[nH]1 [Compound 181, 5′-(4-fluorophenyl)-3′-isopropyl-N-(4-(piperazin-1-yl)phenyl)-1H,3′H-[2,4′-biimidazole]-4-carboxamide] | 12 to 120 nM | – | 12 to 120 nM | ++ (10-100 μM/min/mg as ++)
CC(C)n1cnc(-c2ccc(C(F)(F)F)cc2)c1-c1nc(C(=O)Nc2ccc(N3CCN(CCO)CC3)cc2)c[nH]1 [Compound 134] | > 120 nM | – | > 120 nM | ++ (10-100 μM/min/mg as ++)
CC(C)n1cnc(-c2ccc(F)cc2)c1-c1nc(C(=O)Nc2ccc(N3CCN(C(N)=O)CC3)cc2)c[nH]1 [Compound 99, N-(4-(4-carbamoylpiperazin-1-yl)phenyl)-5′-(4-fluorophenyl)-3′-isopropyl-1H,3′H-[2,4′-biimidazole]-4-carboxamide] | > 120 nM | – | > 120 nM | ++ (10-100 μM/min/mg as ++)
CC(C)n1cnc(-c2ccc(Cl)cc2)c1-c1nc(C(=O)Nc2ccc(CCC(=O)O)cc2)c[nH]1 [Compound 137, 3-(4-(5′-(4-chlorophenyl)-3′-isopropyl-1H,3′H-[2,4′-biimidazole]-4-carboxamido)phenyl)propanoic acid] | 1 to 12 nM | – | > 120 nM | +++ (1-10 μM/min/mg as +++)
CC(C)n1cnc(-c2ccc(F)cc2)c1-c1nc(C(=O)Nc2ccc(CCCCC(=O)O)cc2)c[nH]1 [Compound 132, 5-(4-(5′-(4-fluorophenyl)-3′-isopropyl-1H,3′H-[2,4′-biimidazole]-4-carboxamido)phenyl)pentanoic acid] | 12 to 120 nM | – | 12 to 120 nM | +++ (1-10 μM/min/mg as +++)
CC(C)n1cnc(-c2ccc(C(F)(F)F)cc2)c1-c1nc(C(=O)Nc2ccc(N3CCN(C)CC3)cc2)c[nH]1 [Compound 142, 3′-isopropyl-N-(4-(4-methylpiperazin-1-yl)phenyl)-5′-(4-(trifluoromethyl)phenyl)-1H,3′H-[2,4′-biimidazole]-4-carboxamide] | > 120 nM | – | > 120 nM | + (>100 μM/min/mg as +)
CN1CCN(c2ccc(NC(=O)c3c[nH]c(-c4c(-c5ccc(F)cc5)ncn4[C@H]4CC[C@@H](O)CC4)n3)cc2)CC1 [Compound 172] | 12 to 120 nM | – | – | –
CC(C)n1cnc(-c2ccc(F)cc2)c1-c1nc(C(=O)Nc2ccc(CCC(=O)O)cc2)c[nH]1 [Compound 102, 3-(4-(5′-(4-fluorophenyl)-3′-isopropyl-1H,3′H-[2,4′-biimidazole]-4-carboxamido)phenyl)propanoic acid] | 12 to 120 nM | – | > 120 nM | +++ (1-10 μM/min/mg as +++)
O=C(Nc1ccccc1F)c1occc1-c1c(-c2cccnc2)ncn1C1CCCC1 [Compound 1] | – | > 1 nM | – | –
CN1CCN(c2ccc(NC(=O)c3c[nH]c(-c4ncn(C(F)F)c4-c4ccc(F)cc4)n3)cc2)CC1 [Compound 175] | 1 to 12 nM | – | – | –
O=C(Nc1ccccc1F)c1occc1-c1c(-c2ccc(F)cc2)ncn1CC1CCOC1 (stereo not shown) [Compound 4] | – | > 1 nM | – | –
CC(C)n1cnc(-c2ccc(F)cc2)c1-c1nc(C(=O)Nc2ccc(N3C[C@H]4CC[C@@H](C3)N4C)cc2)c[nH]1 [Compound 186, 5′-(4-fluorophenyl)-3′-isopropyl-N-(4-((1R,5S)-8-methyl-3,8-diazabicyclo[3.2.1]octan-3-yl)phenyl)-1H,3′H-[2,4′-biimidazole]-4-carboxamide] | 1 to 12 nM | – | 1 to 12 nM | –
